Where “and” joins values, the source holds several entries; their conditions need not be identical. Identical values can stand only once. Entries after “also recorded” stand apart in the source; their conditions may differ.
Tested on: scopolamine-treated cynomolgus monkeys
Assay: Scopolamine-induced impairment of vsPAL task performance, treatment + scopolamine
Assay type: in vivo, cynomolgus monkeys (Macaca Fasicularis)
Details: for Cohen's d / effect r: eventual accuracy, 4-stimuli; for mean (cohen's d calculations): eventual correct; for % Completion / Average Response Latency (Avg Rsp Lat) / Eventual Correct, 2 Stimuli / Eventual Correct, 3 Stimuli / Eventual Correct, 4 Stimuli / Eventual Correct, Overall Mean % Correct / Initial Correct, 3 Stimuli / Initial Correct, 4 Stimuli / Initial Correct, Overall Mean % Correct / Initial correct, 2 Stimuli: im + Scopolamine
[1] = 0.03 mg/kg + scopolamine vs vehicle+scopolamine
[2] = 0.1 mg/kg + scopolamine vs vehicle+scopolamine
[3] = 0.3 mg/kg + scopolamine vs vehicle+scopolamine
[4] = BMS-933043 0.03 mg/kg, group MEAN
[5] = BMS-933043 0.03 mg/kg, individual animals, 0.03 mg/kg
[6] = BMS-933043 0.1 mg/kg, group MEAN
[7] = BMS-933043 0.1 mg/kg, individual animals, 0.1 mg/kg
[8] = BMS-933043 0.3 mg/kg, group MEAN

SMILES: c1cn(-c2cc(NC3=NC[C@@]4(CN5CCC4CC5)O3)ncn2)cn1 [BMS-933043, (2R)-N-(6-(1H-imidazol-1-yl)-4-pyrimidinyl)-4'H-spiro[4-azabicyclo[2.2.2]octane-2,5'-[1, 3]oxazol]-2'-amine]
- Cohen's d [1]: 0.64
- effect r [1]: 0.306
- Cohen's d (0.03 mg/kg + scopolamine vs vehicle+scopolamine, listed as 933043): 0.643
- Cohen's d [2]: 0.73
- effect r [2]: 0.343
- Cohen's d (0.1 mg/kg + scopolamine vs vehicle+scopolamine, listed as 933043): 0.7311
- Cohen's d [3]: 1.2
- effect r [3]: 0.51
- effect on scopolamine-induced impairment of eventual accuracy (0.03, 0.1 and 0.3 mg/kg i.m., 4-stimuli condition): significantly ameliorated; also recorded: significantly reversed
- mean (cohen's d calculations) (0.03 mpk + scop, 4-stimuli condition): 81.7
- mean (cohen's d calculations) (0.1 mpk + scop, 4-stimuli condition): 81.4
- mean (cohen's d calculations) (0.3 mpk + scop, 4-stimuli condition): 90.0
- % Completion [4]: 80.9%
- Average Response Latency (Avg Rsp Lat) [4]: 2008.1 ms
- Eventual Correct, 2 Stimuli [4]: 100.0%
- Eventual Correct, 3 Stimuli [4]: 88.6%
- Eventual Correct, 4 Stimuli [4]: 81.7%
- Eventual Correct, Overall Mean % Correct [4]: 89.8%
- Initial Correct, 3 Stimuli [4]: 58.6%
- Initial Correct, 4 Stimuli [4]: 38.3%
- Initial Correct, Overall Mean % Correct [4]: 63.6%
- Initial correct, 2 Stimuli [4]: 90.0%
- Eventual Correct, 2 Stimuli (BMS-933043 0.03 mg/kg, individual animals): 100.0%
- % Completion [5]: 81.8% and 100.0% and 81.3% and 32.1% and 72.4% and 98.5%
- Average Response Latency (Avg Rsp Lat) [5]: 2181.5 ms and 1558.2 ms and 1198.4 ms and 2787.4 ms and 1505.0 ms and 2151.4 ms and 2675.1 ms
- Eventual Correct, 3 Stimuli [5]: 90.0% and 100.0% and 50.0%
- Eventual Correct, 4 Stimuli [5]: 100.0% and 90.0% and 40.0% and 80.0%
- Eventual Correct, Overall Mean % Correct [5]: 96.7% and 76.7% and 100.0% and 75.0% and 90.0% and 93.3%
- Initial Correct, 3 Stimuli [5]: 70.0% and 60.0% and 40.0% and 80.0% and 20.0%
- Initial Correct, 4 Stimuli [5]: 40.0% and 10.0% and 80.0% and 20.0%
- Initial Correct, Overall Mean % Correct [5]: 70.0% and 66.7% and 56.7% and 76.7% and 65.0% and 40.0%
- Initial correct, 2 Stimuli [5]: 100.0% and 90.0% and 80.0%
- % Completion [6]: 84.8%
- Average Response Latency (Avg Rsp Lat) [6]: 1958.7 ms
- Eventual Correct, 2 Stimuli [6]: 100.0%
- Eventual Correct, 3 Stimuli [6]: 98.6%
- Eventual Correct, 4 Stimuli [6]: 81.4%
- Eventual Correct, Overall Mean % Correct [6]: 93.3%
- Initial Correct, 3 Stimuli [6]: 75.7%
- Initial Correct, 4 Stimuli [6]: 35.7%
- Initial Correct, Overall Mean % Correct [6]: 66.7%
- Initial correct, 2 Stimuli [6]: 88.6%
- Eventual Correct, 2 Stimuli (BMS-933043 0.1 mg/kg, individual animals): 100.0%
- % Completion [7]: 83.0% and 98.5% and 77.8% and 81.4% and 55.7% and 97.1% and 100.0%
- Average Response Latency (Avg Rsp Lat) [7]: 1783.8 ms and 1549.9 ms and 1223.3 ms and 2854.5 ms and 1899.4 ms and 1717.2 ms and 2683.0 ms
- Eventual Correct, 3 Stimuli [7]: 90.0% and 100.0%
- Eventual Correct, 4 Stimuli [7]: 90.0% and 80.0% and 70.0% and 60.0% and 100.0%
- Eventual Correct, Overall Mean % Correct [7]: 93.3% and 90.0% and 86.7% and 100.0% and 96.7%
- Initial Correct, 3 Stimuli [7]: 80.0% and 60.0% and 70.0% and 90.0% and 100.0%
- Initial Correct, 4 Stimuli [7]: 50.0% and 10.0% and 40.0% and 30.0% and 70.0%
- Initial Correct, Overall Mean % Correct [7]: 76.7% and 53.3% and 66.7% and 90.0% and 60.0%
- Initial correct, 2 Stimuli [7]: 100.0% and 90.0% and 80.0%
- % Completion [8]: 86.7%
- Average Response Latency (Avg Rsp Lat) [8]: 1774.3 ms
- Eventual Correct, 2 Stimuli [8]: 100.0%
- Eventual Correct, 3 Stimuli [8]: 94.3%
- Eventual Correct, 4 Stimuli [8]: 90.0%
- Eventual Correct, Overall Mean % Correct [8]: 94.3%
- Initial Correct, 3 Stimuli [8]: 68.6%
- Initial Correct, 4 Stimuli [8]: 45.0%
- Initial Correct, Overall Mean % Correct [8]: 67.6%
- Initial correct, 2 Stimuli [8]: 91.4%
- Eventual Correct, 2 Stimuli (BMS-933043 0.3 mg/kg, individual animals): 100.0%
- % Completion (BMS-933043 0.3 mg/kg, individual animals, 0.3 mg/kg): 86.3% and 100.0% and 97.7% and 32.1% and 95.8% and 95.1%
